Measurements reported in patent US10807982B2, “Bromodomain inhibitors” (CELGENE QUANTICEL RESEARCH, INC., priority 2015, dated 2020).

What was measured:
BRD4(BD1) = BRD4(BD1) (Homo sapiens (Human), UniProt O60885); assay: In vitro enzyme inhibition assay (BRD4 AlphaScreen, H4-tetraacetyl peptide); format: binding; conditions: BRD4(BD1) 2 nM, peptide 15 nM
Experimental: Determination of the IC50 for the heterocyclic derivative BRD4 inhibitors disclosed herein was performed as follows. His-tagged […] was cloned, expressed and purified to homogeneity. Filipakopoulos et al., 468 Nature 1067 (2010). BRD4 binding and inhibition was assessed by monitoring the interaction of biotinylated H4-tetraacetyl peptide (AnaSpec, H4K5/8/12/16(Ac), biotin—labeled) with the target using the AlphaScreen technology (Life Technologies). In a 384-well ProxiPlate BRD4(BD1) (2 nM final) was combined with peptide (15 nM final) in 50 mM HEPES (pH 7.3), 10 mM NaCl, 0.25 mM TCEP, 0.1% (w/v) BSA, and 0.005% (w/v) Brij-35 either in the presence of DMSO (final 0.4% DMSO) or compound dilution series in DMSO. After 20 min incubation at RT, Alpha streptavidin donor beads and Nickel Chelate acceptor beads were added to a final concentration of 5 μg/mL. After 2 hr of equilibration, plates were read on an Envision instrument and the IC50 was calculated using a four parameter non-linear curve fit.
The ability of the compounds disclosed herein to inhibit BRD4 activity was quantified and the respective IC50 value was determined.

[1] = tested on: Raji, human Burkitts lymphoma cells; assay: Cell-MTS cellular proliferation assay, Raji; format: cell-based; conditions: Homo sapiens, 168 hr incubation
Experimental: (§1) A colorimetric cellular proliferation assay (Cell-MTS assay) was performed to assess the ability of the heterocyclic derivative […] inhibitors disclosed herein to effect the proliferation of established cancer cell lines.
(§2) The Cell-MTS assay is a 7-day plate-based colorimetric assay which quantifies the amount of newly generated NADH in the presence or absence of test compound. The NADH level is used for the quantification of cancer cell proliferation.
(§3) Established cancer cell lines with a variety of driving mutations were obtained from American Type Culture Collection (ATCC) and routinely passaged according to ATCC protocols. For routine assay, these cells were seeded at densities which enabled ˜90% confluence after 7 days of culture. Raji, human Burkitts lymphoma cells, (cMYC) were seeded at 15,000 cells per 96-well. HL-60, human proleukemia cells, (NRAS, p16, p53, c-Myc amplified) were seeded at 5,000 cells per 96-well. NCI-H460, human non-small cell lung cancer cells. (KRAS, PIK3CA, STLK11, p16) were seeded at 3,000 cells per 96-well. 24 hr after plating, cells received an 11 point dilution of test compound with final concentration ranges from 100 µM to 2.0 nM. Cells were incubated in the presence of compound for 168 hr at 37° C., and 5% CO2. At the end of this incubation period, 80 µL of media is removed and 20 µL of CellTiter 96® AQueous Non-Radioactive Cell Proliferation Assay solution (Promega) was added. The cells were incubated until the OD490 was >0.6. IC50 values were calculated using the IDBS XLfit software package and include background subtracted OD490 values and normalization to DMSO controls. Cellular proliferation IC50 values were uploaded and archived using the Chem Biography Platform. Table 3 provides the results of the in vitro enzyme inhibition assay experiments and the in vitro cell-based assay experiments performed with the compounds disclosed herein: […]

[2] = tested on: HL-60, human proleukemia cells; assay: Cell-MTS cellular proliferation assay, HL-60; format: cell-based; conditions: Homo sapiens, HL-60 cells, 168 hr incubation
Experimental: as §1, §2, §3

[3] = tested on: NCI-H460, human non-small cell lung cancer cells; assay: Cell-MTS cellular proliferation assay, NCI-H460; format: cell-based; conditions: Homo sapiens, 168 hr incubation
Experimental: as §1, §2, §3

SMILES	IC50 (BRD4(BD1)) [nM]	IC50 [1] [nM]	IC50 [2] [nM]	IC50 [3] [nM]
Cc1cc(-c2cc(NS(C)(=O)=O)c3ncn(Cc4cccc(F)c4)c3c2)cn(C)c1=O [Example 32, N-[6-(1,5-dimethyl-6-oxopyridin-3-yl)-1-[(3-fluorophenyl)methyl]benzimidazol-4-yl]methanesulfonamide]	≤ 500	≤ 500	≤ 500	500 to 5000
Cc1cc(-c2cc(NS(C)(=O)=O)c3nc(C)n(Cc4ccc(F)cc4)c3c2)cn(C)c1=O [Example 37, N-[6-(1,5-dimethyl-6-oxopyridin-3-yl)-1-[(4-fluorophenyl)methyl]-2-methylbenzimidazol-4-yl]methanesulfonamide]	≤ 500	≤ 500	≤ 500	500 to 5000
COc1cc(-c2cc(NS(C)(=O)=O)c3nc(C)n(Cc4ccc(F)cc4)c3c2)cn(C)c1=O [Example 38, N-[1-[(4-fluorophenyl)methyl]-6-(5-methoxy-1-methyl-6-oxopyridin-3-yl)-2-methylbenzimidazol-4-yl]methanesulfonamide]	≤ 500	≤ 500	≤ 500	> 5000
CCCCn1cnc2c(NS(=O)(=O)CC)cc(-c3cc(C)c(=O)n(C)c3)cc21 [Example 40, N-[1-butyl-6-(1,5-dimethyl-6-oxopyridin-3-yl)benzimidazol-4-yl]ethanesulfonamide]	≤ 500	≤ 500	≤ 500	> 5000
CCS(=O)(=O)Nc1cc(-c2cc(C)c(=O)n(C)c2)cc2c1ncn2Cc1ccc(F)cc1F [Example 41, N-[1-[(2,4-difluorophenyl)methyl]-6-(1,5-dimethyl-6-oxopyridin-3-yl)benzimidazol-4-yl]ethanesulfonamide]	≤ 500	≤ 500	≤ 500	500 to 5000

Further lines, results first:

IC50 (BRD4(BD1)) [nM]	IC50 [1] [nM]	IC50 [2] [nM]	IC50 [3] [nM]	SMILES
≤ 500	≤ 500	≤ 500	500 to 5000	Cc1cc(-c2cc(NS(C)(=O)=O)c3ncn(Cc4ccccc4)c3c2)cn(C)c1=O [Example 31, N-[1-benzyl-6-(1,5-dimethyl-6-oxopyridin-3-yl)benzimidazol-4-yl]methanesulfonamide]
≤ 500	≤ 500	≤ 500	500 to 5000	CCS(=O)(=O)Nc1cc(-c2cc(C)c(=O)n(C)c2)cc2c1ncn2Cc1cccc(F)c1 [Example 33, N-[6-(1,5-dimethyl-6-oxopyridin-3-yl)-1-[(3-fluorophenyl)methyl]benzimidazol-4-yl]ethanesulfonamide]
≤ 500	≤ 500	≤ 500	> 5000	Cc1cc(-c2cc(NS(C)(=O)=O)c3nc(C)n(Cc4ccccc4)c3c2)cn(C)c1=O [Example 34, N-[1-benzyl-6-(1,5-dimethyl-6-oxopyridin-3-yl)-2-methylbenzimidazol-4-yl]methanesulfonamide]
≤ 500	≤ 500	≤ 500	500 to 5000	Cc1cc(-c2cc(NS(C)(=O)=O)c3nc(C)n(Cc4cccc(F)c4)c3c2)cn(C)c1=O [Example 35, N-[6-(1,5-dimethyl-6-oxopyridin-3-yl)-1-[(3-fluorophenyl)methyl]-2-methylbenzimidazol-4-yl]methanesulfonamide]
≤ 500	≤ 500	≤ 500	≤ 500	CCS(=O)(=O)Nc1cc(-c2cc(C)c(=O)n(C)c2)cc2c1nc(C)n2Cc1cccc(F)c1 [Example 36, N-[6-(1,5-dimethyl-6-oxopyridin-3-yl)-1-[(3-fluorophenyl)methyl]-2-methylbenzimidazol-4-yl]ethanesulfonamide]
≤ 500	≤ 500	≤ 500	> 5000	Cc1cc(-c2cc(NS(C)(=O)=O)c3nc(C)n(CC4CC4)c3c2)cn(C)c1=O [Example 39, N-[1-(cyclopropylmethyl)-6-(1,5-dimethyl-6-oxopyridin-3-yl)-2-methylbenzimidazol-4-yl]methanesulfonamide]
